Values of other authors as cited in patent publication US20140082761A1, “METHODS TO INCREASE PLANT PRODUCTIVITY” (PLANT SENSORY SYSTEMS, LLC, priority 2011, published 2014).

Columns and labels:
[1] = target: T1, sulfinoalanine decarboxylase (SAD) (Rattus norvegicus, UniProt Q64611); details: substrate of SAD (decarboxylation); literature values
T1 construct: in vitro assays on SAD isolated from rat; host or cells: enzyme isolated from rat
T1 sequence (Q64611 1-493): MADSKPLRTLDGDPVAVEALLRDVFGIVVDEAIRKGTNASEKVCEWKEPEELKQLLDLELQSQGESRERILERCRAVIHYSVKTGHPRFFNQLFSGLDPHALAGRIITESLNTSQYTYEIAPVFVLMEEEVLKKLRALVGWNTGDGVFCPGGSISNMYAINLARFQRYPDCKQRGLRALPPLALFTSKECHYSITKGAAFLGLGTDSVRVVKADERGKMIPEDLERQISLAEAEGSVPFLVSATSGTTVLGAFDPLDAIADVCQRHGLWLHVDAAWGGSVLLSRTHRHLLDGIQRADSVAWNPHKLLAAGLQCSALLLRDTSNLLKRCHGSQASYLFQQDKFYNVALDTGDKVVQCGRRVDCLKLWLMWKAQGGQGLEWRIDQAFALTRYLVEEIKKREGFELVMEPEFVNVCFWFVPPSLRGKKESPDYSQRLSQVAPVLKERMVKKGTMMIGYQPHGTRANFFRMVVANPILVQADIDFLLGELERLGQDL

Question: For `NCCS(=O)(=O)O` [taurine, 2-aminoethane sulfonic acid], which “effect of exogenous application on plant growth and production” value (plants (crop)) is on record?
Answer: increase crop harvest, yield, and biomass, increase seedling growth and increase photosynthetic capacity of isolated plant cells and chloroplasts

Question: With `N[C@@H](CCC(=O)O)C(=O)O` [glutamate] as the molecule, how does the Km [1] read?
Answer: 2.9 mM

Question: For `N[C@@H](CC(=O)O)C(=O)O` [aspartate], which Km [1] is on record?
Answer: 11 mM
